US20100178317A1, “Lens Care Solutions with Hyaluronic Acid” (priority 2009, published 2010)

Experiment: Precipitate formation of polyquaternium-1 in hyaluronic acid compositions
Type: physicochemical
Conditions: polyquaternium-1 concentration beyond 3 ppm
Description: One of the more common quaternary ammonium compounds is α-[4-tris(2-hydroxyethyl)-ammonium chloride-2-butenyl]poly[1-dimethyl ammonium chloride-2-butenyl]-ω-tris(2-hydroxyethyl) ammonium chloride, also referred to in the art as polyquaternium-1. Quaternary ammonium compounds are generally referred to in the art as “polyquatemium” disinfectants, and are identified by a particular number following the designation such as polyquaternium-1, polyquaternium-10 or polyquaternium-42. Polyquaternium-1 is present in the ophthalmic compositions from 0.5 ppm to 3 ppm. […] The precipitate is believed to be the complexation product of hyaluronic acid and polyquaternium-1.

Substance: α-[4-tris(2-hydroxyethyl)-ammonium chloride-2-butenyl]poly[1-dimethyl ammonium chloride-2-butenyl]-ω-tris(2-hydroxyethyl) ammonium chloride [polyquaternium-1]
- compatibility with hyaluronic acid in the compositions: formation of a precipitate
